Experiments:
[1] = IV acyclovir; precipitation of aciclovir crystals in the kidney; cited from earlier work
[2] = test system: uninfected HA-sp (primary human spinal astrocytes); details: aprepitant tested at 1-100 μM, data not shown
Method: After 24 hours, medium was changed to basal astrocyte medium containing 0.1% FBS and 1% 100× penicillin-streptomycin that was replenished every 72 hours for 7 days to establish quiescence. On day 7, spinal astrocytes were co-cultivated with VZV-infected spinal astrocytes (40 pfu/mL) or mock-infected spinal astrocytes.

[3] = biological target: NK-1 receptors in the brain (Homo sapiens, UniProt P25103); details: occupies NK-1 receptors in the brain; cited from earlier work
NK-1 receptors in the brain, sequence (P25103 whole entry): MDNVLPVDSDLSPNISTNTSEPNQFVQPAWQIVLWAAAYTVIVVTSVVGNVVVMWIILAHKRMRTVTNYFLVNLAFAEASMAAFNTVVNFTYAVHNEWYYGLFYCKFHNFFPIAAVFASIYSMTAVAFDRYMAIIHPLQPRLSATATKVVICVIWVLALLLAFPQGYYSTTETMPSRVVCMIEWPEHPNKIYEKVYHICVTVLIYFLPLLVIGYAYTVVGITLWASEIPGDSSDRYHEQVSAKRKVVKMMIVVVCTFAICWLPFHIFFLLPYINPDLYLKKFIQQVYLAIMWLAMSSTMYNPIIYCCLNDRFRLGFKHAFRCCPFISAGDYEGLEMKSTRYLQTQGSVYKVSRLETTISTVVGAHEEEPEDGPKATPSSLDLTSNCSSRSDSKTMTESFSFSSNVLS

Compound | patients with reversible nephrotoxicity [1] | optimal concentration to avoid cell death [2] [µM] | blood-brain barrier crossing [3]
Nc1nc2c(ncn2COCCO)c(=O)[nH]1 [acyclovir] | 5-10% |  | 
C[C@@H](O[C@H]1OCCN(Cc2n[nH]c(=O)[nH]2)[C@H]1c1ccc(F)cc1)c1cc(C(F)(F)F)cc(C(F)(F)F)c1 [aprepitant] |  | 10 | crosses the blood-brain barrier

From patent publication US20260151400A1, “USE OF ANTAGONISTS OF NEUROKININ-1 RECEPTOR AND NUCLEOSIDE ANALOGS FOR THE TREATMENT OF HERPESVIRIDAE” (THE REGENTS OF THE UNIVERSITY OF COLORADO, a body corporate, priority 2022, published 2026)
